Experimental data from ChEMBL document CHEMBL1134989, “Synthesis and stability study of a modified phenylpropionic acid linker-based esterase-sensitive prodrug” (Bioorg Med Chem Lett, 2002).

Key:
[1] = Half-life in human plasma; type: ADME, cell-free
[2] = Half-life of the parent prodrug in plasma; type: ADME, cell-free; conditions: human
[3] = Half-life of the parent prodrug in porcine esterase solution; type: ADME, Sus scrofa; conditions: pig

| SMILES | half-life [1] | T1/2 [2] | T1/2 [3] |
| --- | --- | --- | --- |
| COc1ccc(NC(=O)CC(C)(C)c2c(OC)cc(OC)cc2OC(C)=O)cc1 | 52 min | – | – |
| COc1ccc(NC(=O)CC(C)(C)c2c(C)cc(C)cc2OC(C)=O)cc1 | – | 53.7 min | 11.9 min |
